Patent US12478610B2, “Compositions of tryptophol derivatives and 4-ethyl-phenol derivatives, and methods of using same” (B. G. Negev Technologies and Applications Ltd., at …, priority 2020, dated 2025)

Tests used:
human normal whole blood [1] = assay: Thromboelastography (TEG) of human normal whole blood clotting; format: cell-based
Procedure: Clotting of whole blood (from healthy volunteers, and diabetics patients) was monitored by thromboelastography (TEG) on a TEGs 5000 Hemostasis Analyzer (Haemoscope Inc., Niles, IL) equipped with two independent channels. Thermoelastograms were recorded at 37° C. and analyzed using the TEGs Analytical Software) version 4.2.3 provided with the instrument). Reported clotting parameters are the time until the onset in the measured strength considered as clot reaction time, R; the time until achieving 20% of the maximum clot strength (clotting time), k; the rate of clot strength increase measuring the kinetics of clot formation, the α angle; and finally, the maximum clot strength, MA.
Aqueous solutions of molecules mixture in a ratio of 1:1 in deionized water were prepared in the concentration range of 400-1,800 μM. TEG cups were first filled with […] of 250 mM CaCl2, supplemented with […] of human blood sample, followed by the addition of the appropriate volume of the molecule's mixture dissolved in water to obtain the above rang of concentration or TBS as control before initiating the test. The test completed when clotting parameters obtained final values or within 45 min. Each sample was run in duplicates, n≥5 individual blood samples. TEG values of control fell within the acceptable range reported for human whole blood barring an expected decrease in clot strength (MA), as tested blood was deficient in platelets (Scarpelini et al. Biol. Res., 2009).
The inventors have studied the effect of tryptophol acetate and tyrosol acetate on human normal whole blood coagulation. The blood clotting was monitored by thromboelastography (TEG). TEG is one of the most common whole-blood viscoelastic coagulation tests used in clinical laboratories and at the point of care. TEG provides a direct information of the blood clotting kinetic and strength, with no ‘added reagents. Clotting of human normal whole blood was monitored by TEG on a TEG 5000 Hemostasis Analyzer (Haemoscope Inc., Niles, IL) equipped with two independent channels. Thermoelastograms were recorded at 37° C. and analyzed using the TEG Analytical Software (version 4.2.3 provided using the instrument). Reported clotting parameters are the time till onset in the measured strength considered as the clot reaction time, R; the time till achieving 20% of the maximum clot strength (clotting time), k; the rate of the clot strength increase measuring the kinetics of clot formation, the α angle; and lastly, the maximum clot strength, MA (see table 1). […]

human normal whole blood [2] = assay: as above; format: cell-based; settings: 200 μM (mixture: 200 μM each); healthy blood; TBS control
[3] = 400 μM (mixture: 400 μM each), healthy blood, TBS control

SMILES | K (human normal whole blood [1]; [3]) | MA (mm) (human normal whole blood [1]; [3]) | R (min) (human normal whole blood [1]; [3]) | α (degree) (human normal whole blood [1]; [3]) | effect on the TEG parameters as seen with the mixture at 200 μM each (human normal whole blood [1]; single substance at a similar concentration, whole blood) | K (human normal whole blood [2]) | MA (mm) (human normal whole blood [2]) | R (human normal whole blood [2]) | α (degree) (human normal whole blood [2])
NCCc1c[nH]c2ccc(O)cc12 [Serotonin, serotonin] | 1.5 ± 0.2 min | 61.3 ± 1.7 mm | 5.2 + 0.4 min | 62.4 ± 0.9 degree | did not show a similar effect | 2.4 ± 0.2 min | 60 ± 0.4 mm | 6.8 ± 0.9 min | 58.2 ± 0.3 degree
CC(=O)OCCc1c[nH]c2ccccc12 [compound 203, Tryptophol acetate] | – | – | – | – | – | 2.3 ± 0.1 min | 60.5 ± 1.5 mm | 6.2 ± 0.2 min | 56.8 ± 2.7 degree
CC(=O)OCCc1ccc(O)cc1 [compound 180, Tyrosol acetate] | – | – | – | – | – | 1.8 min | 59.0 mm | 6.4 min | 59.6 degree
